The source made the active and inactive calls. The calls are words filed in the database; no cut-off is given here.
Key:
Adenosine receptor A1 [1] = target: T1, Adenosine receptor A1 (Homo sapiens, UniProt P30542); test: Agonist activity at human A1AR expressed in HEK293T/17 cells assessed as inhibition of isoproterenol-induced cAMP accumulation incubated for 10 mins by luciferase reporter assay; type: functional, cell-based, HEK-293T
T1 sequence (P30542 whole entry): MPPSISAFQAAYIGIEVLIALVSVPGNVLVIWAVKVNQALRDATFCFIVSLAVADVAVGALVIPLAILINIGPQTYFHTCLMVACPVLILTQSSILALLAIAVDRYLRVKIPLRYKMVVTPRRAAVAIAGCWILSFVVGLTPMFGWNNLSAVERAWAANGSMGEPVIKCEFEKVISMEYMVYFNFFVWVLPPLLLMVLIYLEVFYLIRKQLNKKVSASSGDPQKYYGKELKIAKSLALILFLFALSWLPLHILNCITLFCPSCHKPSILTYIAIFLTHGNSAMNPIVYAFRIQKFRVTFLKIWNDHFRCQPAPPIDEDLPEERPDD

Adenosine receptor A1 [2] = target: T1, Adenosine receptor A1; test: Agonist activity at human A1AR expressed in HEK293T/17 cells assessed as inhibition of forskolin-induced cAMP accumulation incubated for 10 mins by luciferase reporter assay; type: functional, cell-based, HEK-293T
Mus musculus [3] = test: Cardiovascular toxicity in A1AR knock out C57BL/6 mouse assessed as change in body temperature at 5000 nmol/kg, po; type: organism-based; details: in vivo
Mus musculus [4] = test: Cardiovascular toxicity in A1AR knock out C57BL/6 mouse assessed as change in heart rate at 5000 nmol/kg, po; type: organism-based; details: in vivo
Mus musculus [5] = test: Cardiovascular toxicity in C57BL/6 mouse assessed as change in body temperature at 5000 nmol/kg, po; type: organism-based; details: in vivo
Mus musculus [6] = test: Cardiovascular toxicity in C57BL/6 mouse assessed as change in heart rate at 5000 nmol/kg, po; type: organism-based; details: in vivo
Mus musculus [7] = test: Antinociceptive effect in orally dosed C57BL/6 mouse assessed as inhibition of noxious thermal sensitivity by measuring paw withdrawal latency; type: functional, organism-based
[8] = target: T2, Adenosine receptor A2b (Homo sapiens) (UniProt P29275); test: Displacement of [3H]2-chloro-N6-cyclopentyladenosine from human A2BR at 10 uM
T2 sequence (whole entry): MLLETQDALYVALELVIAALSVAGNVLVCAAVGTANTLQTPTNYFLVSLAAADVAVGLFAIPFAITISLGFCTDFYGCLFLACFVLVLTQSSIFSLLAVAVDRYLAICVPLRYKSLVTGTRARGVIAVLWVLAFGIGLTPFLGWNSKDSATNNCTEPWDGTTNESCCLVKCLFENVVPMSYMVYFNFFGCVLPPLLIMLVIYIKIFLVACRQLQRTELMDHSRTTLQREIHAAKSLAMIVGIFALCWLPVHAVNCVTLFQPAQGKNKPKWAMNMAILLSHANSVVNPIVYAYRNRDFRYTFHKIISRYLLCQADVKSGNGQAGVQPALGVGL

Adenosine receptor A3 = target: T3, Adenosine receptor A3 (Homo sapiens, UniProt P0DMS8); test: Displacement of [3H]2-chloro-N6-cyclopentyladenosine from human A3AR
T3 sequence (P0DMS8 whole entry): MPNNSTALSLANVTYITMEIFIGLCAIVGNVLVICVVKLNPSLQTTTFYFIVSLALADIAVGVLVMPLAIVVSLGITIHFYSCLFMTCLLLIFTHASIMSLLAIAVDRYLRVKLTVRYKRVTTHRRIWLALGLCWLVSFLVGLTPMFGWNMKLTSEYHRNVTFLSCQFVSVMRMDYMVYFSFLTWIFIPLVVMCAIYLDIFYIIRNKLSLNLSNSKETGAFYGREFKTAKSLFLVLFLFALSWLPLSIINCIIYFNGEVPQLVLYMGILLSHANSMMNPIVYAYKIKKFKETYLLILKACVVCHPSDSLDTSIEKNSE

Adenosine receptor A2a = Adenosine receptor A2a (Homo sapiens, UniProt P29274); test: Displacement of [3H]2-chloro-N6-cyclopentyladenosine from human A2AR
Homo sapiens [9] = organism: Homo sapiens; test: Selectivity ratio of Ki for human A3AR to Ki for human A1AR
Adenosine receptor A1 [10] = target: T1, Adenosine receptor A1; test: Displacement of [3H]2-chloro-N6-cyclopentyladenosine from human A1AR
Adenosine receptor A1 [11] = target: T1, Adenosine receptor A1; test: Agonist activity at human A1AR assessed as induction of Ca2+ ion mobilization by orthogonal functional assay
Mus musculus [12] = test: Antinociceptive effect in intravenously dosed C57BL/6 mouse assessed as inhibition of noxious thermal sensitivity by measuring paw withdrawal latency; type: functional, organism-based
Mus musculus [13] = test: Antinociceptive effect in intrathecally dosed C57BL/6 mouse assessed as inhibition of noxious thermal sensitivity by measuring paw withdrawal latency; type: functional, organism-based
Mus musculus [14] = test: Antinociceptive effect in A1AR knock out C57BL/6 mouse assessed as inhibition of noxious thermal sensitivity by measuring paw withdrawal latency at 5 nmol/kg, it; type: functional, organism-based
[15] = target: T2, Adenosine receptor A2b (Homo sapiens); test: Displacement of [3H]2-chloro-N6-cyclopentyladenosine from human A2BR at 50 uM
Homo sapiens [16] = organism: Homo sapiens; test: Selectivity ratio of Ki for human A2AR to Ki for human A1AR

Sequence of Adenosine receptor A2a (P29274 whole entry): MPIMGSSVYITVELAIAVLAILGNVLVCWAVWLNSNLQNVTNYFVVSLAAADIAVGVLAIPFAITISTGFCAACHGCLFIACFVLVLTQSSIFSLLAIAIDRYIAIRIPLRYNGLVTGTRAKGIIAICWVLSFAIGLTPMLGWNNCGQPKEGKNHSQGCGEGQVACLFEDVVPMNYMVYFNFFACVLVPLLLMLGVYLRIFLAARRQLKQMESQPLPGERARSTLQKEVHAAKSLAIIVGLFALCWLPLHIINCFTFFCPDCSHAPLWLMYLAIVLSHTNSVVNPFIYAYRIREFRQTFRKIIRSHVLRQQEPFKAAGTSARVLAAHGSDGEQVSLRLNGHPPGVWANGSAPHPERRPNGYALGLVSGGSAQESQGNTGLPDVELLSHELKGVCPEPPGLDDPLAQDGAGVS

Compound `COP(=O)(OC)OCC(Cc1ccccc1)Nc1nc(Cl)nc2c1ncn2[C@@H]1O[C@H](CO)[C@@H](O)[C@H]1O` (mixture of isomers) has an EC50 (Adenosine receptor A1 [1]) of 5400 nM.
With `O=P(O)(O)OCC(Cc1ccccc1)Nc1nc(Cl)nc2c1ncn2[C@@H]1O[C@H](CO)[C@@H](O)[C@H]1O` (mixture of isomers) the EC50 (Adenosine receptor A1 [1]) was 1500 nM.
Compound `O=P(O)(O)O[C@@H]1CCC[C@H]1Nc1nc(Cl)nc2c1ncn2[C@@H]1O[C@H](CO)[C@@H](O)[C@H]1O` has an EC50 (Adenosine receptor A1 [2]) of 120 nM.
In the case of `COP(=O)(OC)OC[C@H]1O[C@@H](n2cnc3c(NC4CCCC4)ncnc32)[C@H](O)[C@@H]1O`, the EC50 (Adenosine receptor A1 [1]) is reported as 4400 nM.
In the case of `Nc1ncnc2c1ncn2[C@@H]1O[C@H](COP(=O)(O)O)[C@@H](O)[C@H]1O` [ADENOSINE PHOSPHATE], the EC50 (Adenosine receptor A1 [1]) is reported as 500 nM.
`CCOC(=O)CNP(=O)(NCC(=O)OCC)OC[C@H]1O[C@@H](n2cnc3c(NC4CCCC4)nc(Cl)nc32)[C@H](O)[C@@H]1O` showed an EC50 (Adenosine receptor A1 [1]) of 530 nM.
For `COP(=O)(OC)O[C@@H]1CCC[C@H]1Nc1nc(Cl)nc2c1ncn2[C@@H]1O[C@H](CO)[C@@H](O)[C@H]1O`, the EC50 (Adenosine receptor A1 [2]) was over 10000 nM.
Compound `O=P(O)(O)OC[C@H]1O[C@@H](n2cnc3c(NC4CCCC4)ncnc32)[C@H](O)[C@@H]1O` has an EC50 (Adenosine receptor A1 [1]) of 100 nM.
For `OCC(Cc1ccccc1)Nc1nc(Cl)nc2c1ncn2[C@@H]1O[C@H](CO)[C@@H](O)[C@H]1O` (mixture of isomers), the EC50 (Adenosine receptor A1 [1]) was 550 nM.
Work on `CCOP(=O)(OCC)OC[C@H]1O[C@@H](n2cnc3c(NC4CCCC4)nc(Cl)nc32)[C@H](O)[C@@H]1O` yielded an EC50 (Adenosine receptor A1 [1]) of over 10000 nM.
`O=P(OCCc1ccccc1)(OCCc1ccccc1)OC[C@H]1O[C@@H](n2cnc3c(NC4CCCC4)nc(Cl)nc32)[C@H](O)[C@@H]1O` gave an EC50 (Adenosine receptor A1 [1]) of 6100 nM.
With `OC[C@H]1O[C@@H](n2cnc3c(NC4CCCC4)ncnc32)[C@H](O)[C@@H]1O` [N6-CYCLOPENTYLADENOSINE] the Activity (Mus musculus [3]) was “Non-toxic”, the Activity (Mus musculus [4]) was “Non-toxic” and the Activity (Mus musculus [5]) was “Toxic”. For the same compound, the Activity (Mus musculus [6]) was “Toxic” and the Activity (Mus musculus [7]) was “Dose-dependent effect”.
`Nc1ncnc2c1ncn2[C@@H]1O[C@H](CO)[C@@H](OP(=O)(O)O)[C@H]1O` gave an EC50 (Adenosine receptor A1 [1]) of 440 nM.
For `OC[C@H]1O[C@@H](n2cnc3c(N[C@H]4CCC[C@@H]4O)ncnc32)[C@H](O)[C@@H]1O` [GR-79236], the EC50 (Adenosine receptor A1 [2]) was 5.9 nM.
Compound `O=P(O)(O)OC[C@H]1O[C@@H](n2cnc3c(NC4CCCC4)nc(Cl)nc32)[C@H](O)[C@@H]1O` has an inhibition [8] of 0%, a Ki (Adenosine receptor A3) of 1300 nM and a Ki (Adenosine receptor A2a) of 1.6 µM. It also gave a Ratio Ki (Homo sapiens [9]) of 52, a Ki (Adenosine receptor A1 [10]) of 25 nM and an EC50 (Adenosine receptor A1 [11]) of 21 nM. For the same compound, the EC50 (Adenosine receptor A1 [1]) was 72 nM.
`Nc1ncnc2c1ncn2[C@@H]1O[C@H](CO)[C@@H](O)[C@H]1OP(=O)(O)O` gave an EC50 (Adenosine receptor A1 [1]) of 490 nM.
In the case of `COP(=O)(OC)OC[C@H]1O[C@@H](n2cnc3c(NC4CCCC4)nc(Cl)nc32)[C@H](O)[C@@H]1O`, the Activity (Mus musculus [3]) is reported as “Non-toxic”, the Activity (Mus musculus [4]) is reported as “Non-toxic” and the Activity (Mus musculus [5]) is reported as “Non-toxic”. For the same compound, the Activity (Mus musculus [6]) was “Non-toxic”, the Activity (Mus musculus [12]) was “Dose-dependent effect” and the Activity (Mus musculus [13]) was “Dose-dependent effect”. The Activity (Mus musculus [14]) was “inactive”, the Activity (Mus musculus [7]) was “Dose-dependent effect” and the Ki (Adenosine receptor A3) was 450 nM. For the same compound, the Ki (Adenosine receptor A2a) was 4.7 µM, the inhibition [15] was 7% and the Ratio Ki (Homo sapiens [9]) was 12. The Ratio Ki (Homo sapiens [16]) was 130, the Ki (Adenosine receptor A1 [10]) was 36 nM and the EC50 (Adenosine receptor A1 [11]) was 520 nM. The EC50 (Adenosine receptor A1 [1]) was 1400 nM.
